Assay results as given in publication PMC6376265, “A sequence conserved between CD5 and CD6 binds an FERM domain and exerts a restraint on T‐cell activation” (Immunology, 2018).
Read-outs that look alike come from different tables or passages of the source. Values belong to the molecule of their own block, whether it stands above or below them. Square brackets hold non-standard residues; d marks the D form. Ends that are not written are not given here. Peptide text beside a SMILES is read from it. * marks the point of attachment. Biotin = O=C1N[C@H]2[C@H](CS[C@H]2CCCCC(=O)*)N1; pY = N[C@@H](Cc1ccc(OP(=O)(O)O)cc1)C(=O)O; pS = N[C@@H](COP(=O)(O)O)C(=O)O

Experiments:
radixin FERM domain = target: T1, radixin FERM domain (Mus musculus, UniProt P26043); test: Surface plasmon resonance, radixin FERM domain injected over immobilized peptides; format: binding; details: 37°; for Kd: equilibrium binding; for Binding of radixin FERM domain (in words): non-phosphorylated peptides, Fig. 1a, b
T1 construct: mouse cDNA encoding amino acid residues 1–310, which are 100% identical between mouse and human; GST (cleaved yes); made in house; host or cells: E. coli Rosetta (DE3) pLysS
Text: (§1) Peptides representing human sequences and biotinylated at the N terminus were obtained from Peptide Protein Research Ltd (Hampshire, UK): CD5 pSDpSDpY, PDNSpSDpSDpYDLHGAQRL; CD5 SDSDY, PDNSSDSDYDLHGAQRL, CD6 pSDpSDpY, GpSDpSDpYEHYDFSAQ; CD6 SDSDY: GSDSDYEHYDFSAQ; control peptide (CD5), HVDNEYSQPPRNS; ICAM‐2 (NP_001093259 FERM binding site (amino acids 251–275): […].16
Recombinant GST‐tagged FERM domain of radixin constructed from mouse cDNA encoding amino acid residues 1–310, which are 100% identical between mouse and human in the pET49b(+) vector was kindly provided by Toshio Hakoshima (Nara Institute of Science and Technology, Japan).16 Radixin FERM was expressed in Rosetta (DE3) pLysS competent cells (Novagen, Madison, WI) and affinity purified using Glutathione Sepharose 4B (GE Healthcare, Chicago, IL). The GST tag was cleaved with HRV 3C protease (Novagen). Cleaved radixin FERM domains were then further purified using size exclusion chromatography.
For surface plasmon resonance analysis, CD5 pSDpSDpY, CD5 SDSDY, CD6 pSDpSDpY and CD6 SDSDY and ICAM‐2 peptides were immobilized on streptavidin‐coated CM5 chips in a BIAcore 3000 machine. Radixin FERM was injected over the immobilized peptides at 37°. Background signals of radixin FERM over a streptavidin‐coated flow cell were subtracted and equilibrium binding data were fitted using a 1 : 1 Langmuir binding model using GRAPHPAD PRISM 7 software.

[1] = test system: ERM proteins and NHE‐RF 1 and 2; test: Pulldown from Jurkat T-cell lysates with immobilized peptides and mass spectrometry: five ERM and NHE-RF proteins together; format: binding
Text: as §1
Pulldowns and mass spectrometry have been described elsewhere.6 Briefly, peptides CD5 pSDpSDpY, CD6 pSDpSDpY or a control peptide derived from a region around a more proximal cytoplasmic tyrosine of CD5 were immobilized on magnetic beads and used to isolate interacting proteins from Jurkat T‐cell lysates. Interacting proteins were processed, then digested on a filter, and the peptides were loaded onto the Ultimate 300 RSLCnano high‐performance liquid chromatography (Dionex, Sunnyvale, CA) ‐tandem mass spectrometry Q Exactive Orbitrap machine using a 25 cm by 75 μm inner diameter picotip analytical column (New Objective, Woburn, MA) in the central proteomics facilities at the Sir William Dunn School of Pathology, University of Oxford. Spectra analysis was conducted using the MASCOT search engine.17

[2] = target: T2, radixin FERM domain (amino acid residues 1-310) (mouse, UniProt P26043 1-310); test: SPR; biotinylated peptides immobilized on streptavidin-coated CM5 chips, BIAcore 3000; radixin FERM injected at 37°; streptavidin flow cell subtracted; equilibrium binding fitted with a 1:1 Langmuir model; details: both partners purified
T2 construct: also called Recombinant monomeric radixin FERM; FERM domain of radixin; source: E. coli Rosetta (DE3) pLysS, purified (Glutathione Sepharose 4B, HRV 3C cleavage, size exclusion chromatography)

[3] = SPR BIAcore 3000, biotinylated peptides on streptavidin-coated CM5 chip, 1:1 Langmuir fit, CD5 and CD6: three experiments, read-out: KD

T1 sequence (P26043 1-310): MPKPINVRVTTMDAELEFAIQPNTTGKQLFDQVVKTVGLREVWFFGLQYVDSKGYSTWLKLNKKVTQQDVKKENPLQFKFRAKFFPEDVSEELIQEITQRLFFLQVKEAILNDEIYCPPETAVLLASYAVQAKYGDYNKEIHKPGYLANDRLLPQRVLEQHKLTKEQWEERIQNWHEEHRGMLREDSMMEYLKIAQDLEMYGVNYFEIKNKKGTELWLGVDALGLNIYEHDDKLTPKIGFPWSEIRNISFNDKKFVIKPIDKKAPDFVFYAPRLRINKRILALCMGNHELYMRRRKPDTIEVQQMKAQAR
T2 sequence (P26043 1-310): as above

Kd (radixin FERM domain; [3]): 1000 to 2000 nM
Kd (radixin FERM domain; SPR, Fig. 1 panel c, peptides compared with ICAM-2, read-out: KD (Fig. 1c)): 1000 nM
Molecule: CC(C)C[C@H](NC(=O)[C@H](CCCNC(=N)N)NC(=O)[C@H](CCC(N)=O)NC(=O)[C@H](C)NC(=O)CNC(=O)[C@H](Cc1c[nH]cn1)NC(=O)[C@H](CC(C)C)NC(=O)[C@H](CC(=O)O)NC(=O)[C@H](Cc1ccc(OP(=O)(O)O)cc1)NC(=O)[C@H](CC(=O)O)NC(=O)[C@H](COP(=O)(O)O)NC(=O)[C@H](CC(=O)O)NC(=O)[C@H](COP(=O)(O)O)NC(=O)[C@H](CO)NC(=O)[C@H](CC(N)=O)NC(=O)[C@H](CC(=O)O)NC(=O)[C@@H]1CCCN1)C(=O)O [CD5 pSDpSDpY] (H-PDNS[pS]D[pS]D[pY]DLHGAQRL-OH)

Kd (radixin FERM domain; [3]): 500 nM
Molecule: C[C@H](NC(=O)[C@H](CO)NC(=O)[C@H](Cc1ccccc1)NC(=O)[C@H](CC(=O)O)NC(=O)[C@H](Cc1ccc(O)cc1)NC(=O)[C@H](Cc1c[nH]cn1)NC(=O)[C@H](CCC(=O)O)NC(=O)[C@H](Cc1ccc(OP(=O)(O)O)cc1)NC(=O)[C@H](CC(=O)O)NC(=O)[C@H](COP(=O)(O)O)NC(=O)[C@H](CC(=O)O)NC(=O)[C@H](COP(=O)(O)O)NC(=O)CN)C(=O)N[C@@H](CCC(N)=O)C(=O)O [CD6 pSDpSDpY] (H-G[pS]D[pS]D[pY]EHYDFSAQ-OH)

Kd (radixin FERM domain; [3]): ≥ 200 nM
Molecule: CSCC[C@H](NC(=O)[C@H](CCCNC(=N)N)NC(=O)[C@H](CCC(N)=O)NC(=O)[C@H](CCC(N)=O)NC(=O)[C@H](CCCNC(=N)N)NC(=O)[C@H](CC(C)C)NC(=O)[C@H](Cc1c[nH]cn1)NC(=O)CCCC[C@@H]1SC[C@@H]2NC(=O)N[C@@H]21)C(=O)NCC(=O)N[C@H](C(=O)N[C@@H](Cc1ccc(O)cc1)C(=O)NCC(=O)N[C@H](C(=O)N[C@@H](CCCNC(=N)N)C(=O)N[C@@H](C)C(=O)N[C@@H](C)C(=O)N[C@@H](Cc1c[nH]c2ccccc12)C(=O)N[C@@H](CCCNC(=N)N)C(=O)N[C@@H](CCCNC(=N)N)C(=O)N[C@@H](CC(C)C)C(=O)N1CCC[C@H]1C(=O)N[C@@H](CCC(N)=O)C(=O)N[C@@H](C)C(=O)N[C@@H](Cc1ccccc1)C(=O)N[C@@H](CCCNC(=N)N)C(=O)N1CCC[C@H]1C(=O)O)C(C)C)[C@@H](C)O [ICAM-2, reference compound] (Biotin-HLRQQRMGTYGVRAAWRRLPQAFRP-OH; N-terminus and C-terminus assumed)

Binding of radixin FERM domain (in words) (radixin FERM domain; SPR): weak and did not reach saturation
Molecule: GSDSDYEHYDFSAQ [CD6 SDSDY]

Molecule: HVDNEYSQPPRNS [control peptide, control peptide derived from a region around a more proximal cytoplasmic tyrosine of CD5]
Isolation of the five proteins (in words) [1]: not identified

Binding of radixin FERM domain (in words) (radixin FERM domain; SPR): weak and did not reach saturation
Molecule: PDNSSDSDYDLHGAQRL [CD5 SDSDY]

Kd [2]: 500 to 2000 nM
B1: CD6 pSDpSDpY peptide (peptide)
peptide: Biotin-G[pS]D[pS]D[pY]EHYDFSAQ
notes: also called phosphorylated CD6 SDSDY peptide; source: synthetic peptide; bought: Peptide Protein Research Ltd
